Data published in US20230295162A1 (EÖTVÖS LORÁND TUDOMÁNYEGYETEM, priority 2020, published 2023).
pIC50: −log10 of the molar value.

Tests used:
[1] = test system: H2228 lung cancer cell line; assay: High-throughput screening, CellTiter-Glo cell viability assay at 100 nM; format: cell-based, human; conditions: Homo sapiens, NCI-H2228, HTS, compounds at 100 nM, 72 h, read-out: cytotoxicity expressed in IC50, H2228 (results of High throughput screening)
[2] = test system: EBC-1 lung cancer cell line; assay: as above; format: cell-based, human; conditions: Homo sapiens, EBC-1, HTS, compounds at 100 nM, 72 h, read-out: cytotoxicity expressed in IC50, EBC-1 (results of High throughput screening)
[3] = test system: MDA-MB-453 (breast, carcinoma) cells; assay: Cell viability assay, CellTiter-Glo (Example 21); format: cell-based, human; conditions: 72 h treatment
Experimental: (§1) Effect of the selected compounds on cancer cell viability was measured via CellTiter-Glo® luminescent cell viability assay (Promega, Madison, WI, USA) according to the manufacturer's instructions. Cells were plated onto a flat-bottomed, white 96 well plate (BRANDplates®, cat. no.: 781965). Density of the seeded cells was optimized based on their size and growth rate, as the follows: Panc-1:750 cells/well; DU 145, PC-3, Capan-1, MIA PaCa-2, SCC-25, FaDu and EBC-1: 1000 cells/well; LNCaP, Detroit 562, MDA-MB-231 and MDA-MB-453 1500 cells/well. […] After the treatment, the luminescence signal was recorded using a microplate reader (BioTek Synergy 2 Multi-Mode Reader, BioTek, Winooski, VT, USA). Dose-response curves were generated by GraphPad Prism 8.4.2. software using a non-linear regression model (variable slope, four parameters), (see FIGS. 12-51).

[4] = test system: MDA-MB-231 (breast, adenocarcinoma) cells; assay: Cell viability assay, CellTiter-Glo (Example 21); format: cell-based, human; conditions: 72 h treatment
Experimental: as §1

[5] = test system: PC-3 (prostate, adenocarcinoma) cells; assay: Cell viability assay, CellTiter-Glo (Example 21); format: cell-based, human; conditions: 72 h treatment
Experimental: as §1

[6] = test system: LNCaP (prostate, carcinoma) cells; assay: Cell viability assay, CellTiter-Glo (Example 21); format: cell-based, human; conditions: 72 h
Experimental: as §1

[7] = test system: EBC-1 (lung, squamous cell carcinoma) cells; assay: Cell viability assay, CellTiter-Glo (Example 21); format: cell-based, human; conditions: 72 h treatment
Experimental: as §1

[8] = test system: Panc-1 (pancreas, carcinoma) cells; assay: Cell viability assay, CellTiter-Glo (Example 21); format: cell-based, human; conditions: 72 h treatment
Experimental: as §1

[9] = test system: MIA PaCa-2 (pancreas, carcinoma) cells; assay: Cell viability assay, CellTiter-Glo (Example 21); format: cell-based, human; conditions: 72 h treatment
Experimental: as §1

[10] = test system: SCC-25 (tongue, squamous cell carcinoma) cells; assay: Cell viability assay, CellTiter-Glo (Example 21); format: cell-based, human; conditions: 72 h treatment
Experimental: as §1

[11] = test system: DU 145 (prostate, carcinoma) cells; assay: Cell viability assay, CellTiter-Glo (Example 21); format: cell-based, human; conditions: 72 h
Experimental: as §1

[12] = test system: Capan-1 (pancreas, adenocarcinoma) cells; assay: Cell viability assay, CellTiter-Glo (Example 21); format: cell-based, human; conditions: 72 h treatment
Experimental: as §1

[13] = test system: Detroit 562 (pharynx, carcinoma) cells; assay: Cell viability assay, CellTiter-Glo (Example 21); format: cell-based, human; conditions: 72 h treatment
Experimental: as §1

[14] = test system: PANC-1 (human pancreatic carcinoma) cells; assay: Impedance-based viability assay (xCELLigence SP), long treatment; format: cell-based; conditions: 72 h, read-out: cytotoxicity expressed in IC50, PANC-1
Excerpt: (Gibco®/Invitrogen Corporation, New York, NY, USA).
Data obtained from each experiment represent mathematical averages.

SMILES: O=C1C2=C(CCN(Cc3cc(F)cc(F)c3)C2)N2CCN=C2N1Cc1ccc(C(F)(F)F)cc1 [I/30, 7-(3,5-Difluorobenzyl)-4-(4-(trifluoromethyl)benzyl)-2,4,6,7,8,9-hexahydroimidazo[1,2-a]pyrido[3,4-e]pyrimidin-5(1H)-one]
- pIC50 [1]: > 7.00
- pIC50 [2]: > 7.00
- MDA-MB-453 (breast, carcinoma) cell viability (% of control) ([3]; 3.7 nM): 58.0 ± 24.4 % of control
- MDA-MB-453 (breast, carcinoma) cell viability (% of control) ([3]; 11.1 nM): 34.8 ± 3.3 % of control
- MDA-MB-453 (breast, carcinoma) cell viability (% of control) ([3]; 100 nM): 31.1 ± 1.8 % of control
- MDA-MB-453 (breast, carcinoma) cell viability (% of control) ([3]; 300 nM): 28.9 ± 1.0 % of control
- MDA-MB-231 (breast, adenocarcinoma) cell viability (% of control) ([4]; 3.7 nM): 100.0 ± 4.5 % of control
- MDA-MB-231 (breast, adenocarcinoma) cell viability (% of control) ([4]; 11.1 nM): 59.9 ± 2.1 % of control
- MDA-MB-231 (breast, adenocarcinoma) cell viability (% of control) ([4]; 100 nM): 52.1 ± 1.8 % of control
- MDA-MB-231 (breast, adenocarcinoma) cell viability (% of control) ([4]; 300 nM): 52.6 ± 2.5 % of control
- PC-3 (prostate, adenocarcinoma) cell viability (% of control) ([5]; 3.7 nM): 78.9 ± 4.6 % of control
- PC-3 (prostate, adenocarcinoma) cell viability (% of control) ([5]; 11.1 nM): 36.6 ± 1.8 % of control
- PC-3 (prostate, adenocarcinoma) cell viability (% of control) ([5]; 100 nM): 32.1 ± 3.6 % of control
- PC-3 (prostate, adenocarcinoma) cell viability (% of control) ([5]; 300 nM): 31.3 ± 2.5 % of control
- LNCaP cell viability ([6]; 3.7 nM): 29.6 ± 2.5 % of control
- LNCaP cell viability ([6]; 11.1 nM): 15.0 ± 0.4 % of control
- LNCaP cell viability ([6]; 100 nM): 11.4 ± 0.6 % of control
- LNCaP cell viability ([6]; 300 nM): 11.3 ± 1.1 % of control
- EBC-1 (lung, squamous cell carcinoma) cell viability (% of control) ([7]; 3.7 nM): 76.4 ± 2.2 % of control
- EBC-1 (lung, squamous cell carcinoma) cell viability (% of control) ([7]; 11.1 nM): 24.8 ± 1.1 % of control
- EBC-1 (lung, squamous cell carcinoma) cell viability (% of control) ([7]; 100 nM): 21.3 ± 0.6 % of control
- EBC-1 (lung, squamous cell carcinoma) cell viability (% of control) ([7]; 300 nM): 20.1 ± 0.0 % of control
- Panc-1 (pancreas, carcinoma) cell viability (% of control) ([8]; 3.7 nM): 100.8 ± 3.4 % of control
- Panc-1 (pancreas, carcinoma) cell viability (% of control) ([8]; 11.1 nM): 54.4 ± 3.5 % of control
- Panc-1 (pancreas, carcinoma) cell viability (% of control) ([8]; 100 nM): 46.4 ± 3.1 % of control
- Panc-1 (pancreas, carcinoma) cell viability (% of control) ([8]; 300 nM): 49.1 ± 0.2 % of control
- MIA PaCa-2 (pancreas, carcinoma) cell viability (% of control) ([9]; 3.7 nM): 65.7 ± 12.6 % of control
- MIA PaCa-2 (pancreas, carcinoma) cell viability (% of control) ([9]; 11.1 nM): 19.1 ± 8.0 % of control
- MIA PaCa-2 (pancreas, carcinoma) cell viability (% of control) ([9]; 100 nM): 16.7 ± 6.7 % of control
- MIA PaCa-2 (pancreas, carcinoma) cell viability (% of control) ([9]; 300 nM): 17.6 ± 7.6 % of control
- SCC-25 (tongue, squamous cell carcinoma) cell viability (% of control) ([10]; 3.7 nM): 78.7 ± 15.0 % of control
- SCC-25 (tongue, squamous cell carcinoma) cell viability (% of control) ([10]; 11.1 nM): 35.0 ± 14.5 % of control
- SCC-25 (tongue, squamous cell carcinoma) cell viability (% of control) ([10]; 100 nM): 32.9 ± 2.1 % of control
- SCC-25 (tongue, squamous cell carcinoma) cell viability (% of control) ([10]; 300 nM): 36.3 ± 2.6 % of control
- DU 145 cell viability ([11]; 3.7 nM): 37.2 ± 10.4 % of control
- DU 145 cell viability ([11]; 11.1 nM): 7.0 ± 0.9 % of control
- DU 145 cell viability ([11]; 100 nM): 7.0 ± 1.1 % of control
- DU 145 cell viability ([11]; 300 nM): 8.0 ± 2.9 % of control
- Capan-1 (pancreas, adenocarcinoma) cell viability (% of control) ([12]; 3.7 nM): 100.8 ± 5.3 % of control
- Capan-1 (pancreas, adenocarcinoma) cell viability (% of control) ([12]; 11.1 nM): 38.4 ± 4.5 % of control
- Capan-1 (pancreas, adenocarcinoma) cell viability (% of control) ([12]; 100 nM): 34.0 ± 2.8 % of control
- Capan-1 (pancreas, adenocarcinoma) cell viability (% of control) ([12]; 300 nM): 33.1 ± 1.7 % of control
- Detroit 562 (pharynx, carcinoma) cell viability (% of control) ([13]; 3.7 nM): 31.9 ± 6.7 % of control
- Detroit 562 (pharynx, carcinoma) cell viability (% of control) ([13]; 11.1 nM): 27.0 ± 5.5 % of control
- Detroit 562 (pharynx, carcinoma) cell viability (% of control) ([13]; 100 nM): 24.7 ± 2.9 % of control
- Detroit 562 (pharynx, carcinoma) cell viability (% of control) ([13]; 300 nM): 28.7 ± 2.5 % of control
- pIC50 [14]: 8.40
